Read-outs that look alike come from different tables or passages of the source.
Molecular target: human PDE4D catalytic domain (Homo sapiens (Human), UniProt Q08499)
Experiment: PDE4 Assay (TR-FRET, FAM-cAMP cleavage)
Format: biochemical
Details: read-out: PDE4 IC50 range
Experimental: The human PDE4D catalytic domain (UniProt no. Q08499 [S380-L740]) was incubated with a mixture of non-labelled cAMP (cyclic adenosine monophosphate) and fluorescein amidite (FAM) conjugated cAMP and titrated test or reference Compound. Following brief incubation the enzymatic reaction was stopped by addition of binding buffer containing nanoparticles with immobilized trivalent metal ions capable of binding 1) AMP phospho groups and 2) terbium (Tb) donor fluorophores. Subsequent excitation of the Tb donor triggers time-resolved FRET to adjacent FAM acceptor molecules resulting in light emission. In the presence of a PDE4 inhibitor, AMP generation was reduced resulting in a lower fluorescence signal. The cAMP phosphodiester is not bound by the detection system.
The results were calculated as the molar concentrations resulting in 50% inhibition of the substrate cleavage compared to controls samples, and are expressed as a range of IC50 (nM).

[1] = human PDE4D catalytic domain (UniProt Q08499 [S380-L740]), 50% inhibition of substrate cleavage

human PDE4D catalytic domain, sequence (Q08499 380-740): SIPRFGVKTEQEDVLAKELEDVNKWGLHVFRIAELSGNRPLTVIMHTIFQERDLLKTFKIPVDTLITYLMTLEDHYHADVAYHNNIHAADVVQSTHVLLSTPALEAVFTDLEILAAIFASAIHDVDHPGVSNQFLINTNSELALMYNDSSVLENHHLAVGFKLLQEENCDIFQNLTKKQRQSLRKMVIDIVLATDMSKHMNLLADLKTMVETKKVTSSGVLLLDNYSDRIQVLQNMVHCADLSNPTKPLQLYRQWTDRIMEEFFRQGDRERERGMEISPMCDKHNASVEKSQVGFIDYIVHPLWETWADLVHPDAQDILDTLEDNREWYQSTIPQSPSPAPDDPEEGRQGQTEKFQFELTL

SMILES | IC50 [1] [nM] | other results
CCn1nc(CCCOC(=O)c2cccc(OC)c2F)c2c1C(=O)NCC1(CCOCC1)C2 [Example 39, 3-(1-ethyl-8-oxo-spiro[6,7-dihydro-4H-pyrazolo[3,4-c]azepine-5,4′-tetrahydropyran]-3-yl)propyl 2-fluoro-3-methoxy-benzoate] | < 100 | 
CCn1nc(CCCOC(=O)c2ccc(Cl)c(OC)c2)c2c1C(=O)NCC1(CCOCC1)C2 [Example 55, 3-(1-ethyl-8-oxo-spiro[6,7-dihydro-4H-pyrazolo[3,4-c]azepine-5,4′-tetrahydropyran]-3-yl)propyl 4-chloro-3-methoxy-benzoate] | < 100 | 
CCn1nc(C[C@@H](C)COC(=O)c2cnc(C)o2)c2c1C(=O)NCC1(CCOCC1)C2 [Example 282, [(2R)-3-(1-ethyl-8-oxo-spiro[6,7-dihydro-4H-pyrazolo[3,4-c]azepine-5,4′-tetrahydropyran]-3-yl)-2-methyl-propyl] 2-methyloxazole-5-carboxylate] |  | IC50 (Table 16, Examples 277-296): < 100 nM
CCn1nc(CC(C)(C)COC(=O)c2ccc(S(=O)(=O)CC)cc2)c2c1C(=O)NCC1(CCOCC1)C2 [Example 203, [3-(1-ethyl-8-oxo-spiro[6,7-dihydro-4H-pyrazolo[3,4-c]azepine-5,4′-tetrahydropyran]-3-yl)-2,2-dimethyl-propyl] 4-ethylsulfonylbenzoate] | < 100 | 
CCn1nc(C[C@@H](C)COC(=O)c2ccc(C(=O)N3CCCC3)cc2)c2c1C(=O)NCC1(CCOCC1)C2 [Example 172, [(2R)-3-(1-ethyl-8-oxo-spiro[6,7-dihydro-4H-pyrazolo[3,4-c]azepine-5,4′-tetrahydropyran]-3-yl)-2-methyl-propyl] 4-(pyrrolidine-1-carbonyl)benzoate] | < 100 | 
CCn1nc(CCCOC(=O)c2cnsc2)c2c1C(=O)NCC1(CCOCC1)C2 [Example 243, 3-(1-ethyl-8-oxo-spiro[6,7-dihydro-4H-pyrazolo[3,4-c]azepine-5,4′-tetrahydropyran]-3-yl)propyl isothiazole-4-carboxylate] | < 100 | 
CCn1nc(CCCOC(=O)c2ccc(C(=O)N3CCN(C)CC3)cc2)c2c1C(=O)NCC1(CCOCC1)C2 [Example 110, 3-(1-ethyl-8-oxo-spiro[6,7-dihydro-4H-pyrazolo[3,4-c]azepine-5,4′-tetrahydropyran]-3-yl)propyl 4-(4-methylpiperazine-1-carbonyl)benzoate] | < 100 | 
CCn1nc(C[C@@H](C)COC(=O)c2ccc(S(=O)(=O)C3CCCC3)cc2)c2c1C(=O)NCC1(CCOCC1)C2 [Example 162, [(2R)-3-(1-ethyl-8-oxo-spiro[6,7-dihydro-4H-pyrazolo[3,4-c]azepine-5,4′-tetrahydropyran]-3-yl)-2-methyl-propyl] 4-cyclopentylsulfonylbenzoate] | < 100 | 
CCn1nc(CCCOC(=O)c2ccc(C(F)(F)F)cc2)c2c1C(=O)NCC1(CCOCC1)C2 [Example 62, 3-(1-ethyl-8-oxo-spiro[6,7-dihydro-4H-pyrazolo[3,4-c]azepine-5,4′-tetrahydropyran]-3-yl)propyl 4-(trifluoromethyl)benzoate] | < 100 | 
CCn1nc(CCCOC(=O)c2ccc(F)cc2C)c2c1C(=O)NCC1(CCOCC1)C2 [Example 19, 3-(1-ethyl-8-oxo-spiro[6,7-dihydro-4H-pyrazolo[3,4-c]azepine-5,4′-tetrahydropyran]-3-yl)propyl 4-fluoro-2-methyl-benzoate] | < 100 | 
CCn1nc(C[C@@H](C)COC(=O)c2cn(C)cn2)c2c1C(=O)NCC1(CCOCC1)C2 [Example 280, [(2R)-3-(1-ethyl-8-oxo-spiro[6,7-dihydro-4H-pyrazolo[3,4-c]azepine-5,4′-tetrahydropyran]-3-yl)-2-methyl-propyl] 1-methylimidazole-4-carboxylate] |  | IC50 (Table 16, Examples 277-296): < 100 nM
CCn1nc(CC(C)(C)COC(=O)c2cscn2)c2c1C(=O)NCC1(CCOCC1)C2 [Example 305, [3-(1-ethyl-8-oxo-spiro[6,7-dihydro-4H-pyrazolo[3,4-c]azepine-5,4′-tetrahydro-pyran]-3-yl)-2,2-dimethyl-propyl] thiazole-4-carboxylate] |  | IC50 (Table 17, Examples 297-316): < 100 nM
CCn1nc(CCCOC(=O)c2ccc(C(F)(F)F)cc2C(F)(F)F)c2c1C(=O)NCC1(CCOCC1)C2 [Example 97, 3-(1-ethyl-8-oxo-spiro[6,7-dihydro-4H-pyrazolo[3,4-c]azepine-5,4′-tetrahydro-pyran]-3-yl)propyl 2,4-bis(trifluoromethyl)benzoate] | < 100 | 
CCn1nc(CC(C)(C)COC(=O)c2cccc(F)c2)c2c1C(=O)NCC1(CCOCC1)C2 [Example 191, [3-(1-ethyl-8-oxo-spiro[6,7-dihydro-4H-pyrazolo[3,4-c]azepine-5,4′-tetrahydropyran]-3-yl)-2,2-dimethyl-propyl] 3-fluorobenzoate] | < 100 | 
CCn1nc(C[C@@H](C)COC(=O)c2cccc(C(=O)N3CCCCC3)c2)c2c1C(=O)NCC1(CCOCC1)C2 [Example 182, [(2R)-3-(1-ethyl-8-oxo-spiro[6,7-dihydro-4H-pyrazolo[3,4-c]azepine-5,4′-tetrahydropyran]-3-yl)-2-methyl-propyl] 3-(piperidine-1-carbonyl)benzoate] | < 100 | 
CCn1nc(CC(C)(C)COC(=O)c2ccc(OC)cc2)c2c1C(=O)NCC1(CCOCC1)C2 [Example 197, [3-(1-ethyl-8-oxo-spiro[6,7-dihydro-4H-pyrazolo[3,4-c]azepine-5,4′-tetrahydropyran]-3-yl)-2,2-dimethyl-propyl] 4-methoxybenzoate] | < 100 | 
CCn1nc(CCCOC(=O)c2ccc(S(C)(=O)=O)cc2)c2c1C(=O)NCC1(CCOCC1)C2 [Example 3, 3-(1-Ethyl-8-oxo-spiro[6,7-dihydro-4H-pyrazolo[3,4-c]azepine-5,4′-tetrahydropyran]-3-yl)propyl 4-methylsulfonylbenzoate] | < 100 | 
CCn1nc(CCCOC(=O)c2ccc(C)cc2C)c2c1C(=O)NCC1(CCOCC1)C2 [Example 14, 3-(1-ethyl-8-oxo-spiro[6,7-dihydro-4H-pyrazolo[3,4-c]azepine-5,4′-tetrahydropyran]-3-yl)propyl 2,4-dimethylbenzoate] | < 100 | 
CCn1nc(CCCOC(=O)C2CCN(C)CC2)c2c1C(=O)NCC1(CCOCC1)C2 [Example 256, 3-(1-ethyl-8-oxo-spiro[6,7-dihydro-4H-pyrazolo[3,4-c]azepine-5,4′-tetrahydropyran]-3-yl)propyl 1-methylpiperidine-4-carboxylate] | 100 to 500 | 
CCn1nc(CC(C)(C)COC(=O)[C@H]2CC[C@H](O)CC2)c2c1C(=O)NCC1(CCOCC1)C2 [Example 194, [3-(1-ethyl-8-oxo-spiro[6,7-dihydro-4H-pyrazolo[3,4-c]azepine-5,4′-tetrahydropyran]-3-yl)-2,2-dimethyl-propyl] 4-hydroxycyclohexane-carboxylate] | < 100 | 
CCn1nc(CCCOC(=O)c2ccc(C(F)(F)F)c(Cl)c2)c2c1C(=O)NCC1(CCOCC1)C2 [Example 86, 3-(1-ethyl-8-oxo-spiro[6,7-dihydro-4H-pyrazolo[3,4-c]azepine-5,4′-tetrahydro-pyran]-3-yl)propyl 3-chloro-4-(trifluoromethyl)benzoate] | < 100 | 
CCn1nc(C[C@@H](C)COC(=O)c2cccc(C(C)=O)c2)c2c1C(=O)NCC1(CCOCC1)C2 [Example 154, [(2R)-3-(1-ethyl-8-oxo-spiro[6,7-dihydro-4H-pyrazolo[3,4-c]azepine-5,4′-tetrahydropyran]-3-yl)-2-methyl-propyl] 3-acetylbenzoate] | < 100 | 

Reference: US10793580B2, “Substituted pyrazoloazepin-8-ones and their use as phosphodiesterase inhibitors” (LEO Pharma A/S, priority 2016, dated 2020)
